Experimental data from patent US7550625B2, “Esters of florfenicol” (priority 2007, dated 2009).

Key:
various bacteria = settings: cited from earlier work
[1] = system: variety of microorganisms; settings: cited from earlier work
[2] = Serum concentration of florfenicol after subcutaneous injection to an animal; assay type: in vivo
From the text: A lower Cmax advantageously avoids undesirable side-effects.

[3] = added to serum in vitro; compared with florfenicol butyrate

CS(=O)(=O)c1ccc([C@@H](O)[C@@H](CF)NC(=O)C(Cl)Cl)cc1 [florfenicol]
typical minimum inhibitory concentrations (MICs) (various bacteria): 0.3 to 1 µg/mL | activity against microorganisms ([1]; Citrobacter, Proteus mirabilis, Proteus sp., Shigella, Salmonella, Providencia, Bacteroides, Staphylococcos aureus, Enterococci, Pasteurlla haemolytica, Pasteurella multocida, Haemophilus somnus, Haemophilus influenza): active | resistance of microorganisms to the substance ([1]; Serratia marcescens, Pseudomonas aeruginosa, Acinetobacter): resistant

COCCOCC(=O)O[C@H](c1ccc(S(C)(=O)=O)cc1)[C@@H](CF)NC(=O)C(Cl)Cl [formula (Ia)]
Cmax for the serum concentration of florfenicol ([2]; administered to an animal, compared with florfenicol): lower than the Cmax for the serum concentration of florfenicol when florfenicol is administered | time period for which serum concentration of florfenicol is therapeutically effective ([2]; subcutaneous injection, compared with florfenicol or florfenicol butyrate): longer | rate of hydrolysis in serum [3]: hydrolyzed faster than florfenicol butyrate

CN(C)CC(=O)OC(c1ccc(S(C)(=O)=O)cc1)C(CF)NC(=O)C(Cl)Cl (stereo not shown) [formula (Ib)]
pharmacokinetic and pharmacodynamic profile ([2]; when administered to an animal, expected, compared with florfenicol and other florfenicol esters): superior pharmacokinetic and pharmacodynamic profile
